The record followed here is patent US20220204473A1, “COMPOUND AS IRAK INHIBITOR” (SHANGHAI MEIYUE BIOTECH DEVELOPMENT CO., LTD., priority 2018, published 2022).

Series [1] deals with TNF-α release in LPS-induced Balb/c female mice. Kind of series: Inhibition of TNF-α release in LPS-induced Balb/c female mice. It counts as in vivo, mouse. The conditions noted are these: oral gavage 5 h before LPS induction, serum 1.5 h after stimulation. Also on record: concentration or dose not given beside the values. As to the method:
In the normal control groups, the animals received an intraperitoneal injection of normal saline (10 mL/kg) and in the model groups, the animals received LPS stimulation (Sigma CAT #L2630, i.p., 10 mL/kg, 0.2 mg/kg). During the assay, to the test compounds, DMSO, Solutol and 10 mM PBS were sequentially added to prepare a solution or suspension of required concentration for administration. For the vehicle, DMSO, Solutol and 10 mM PBS were mixed in a volume ratio of 5:15:80. In each of the groups, the animals were administered through oral gavage (10 mL/kg) 5 h before LPS (or saline) stimulation at predetermined doses, and euthanized with CO2 at 1.5 h after the stimulation for cardiac blood collection. The whole blood was not anticoagulated, incubated in wet ice for 1.5 h, and centrifuged at 2000×g at 4° C. for 10 min to separate the serum. The serum was frozen at −80° C. for TNF-α assay. Quantification of the TNF-α was done with TNF-α ELISA kit according to the manufacturer's instruction.

Series [2] deals with T1, human IRAK4 (Homo sapiens, UniProt Q9NWZ3).
T1 construct: purchased Cama (so in the source)
T1 sequence (Q9NWZ3 1-460): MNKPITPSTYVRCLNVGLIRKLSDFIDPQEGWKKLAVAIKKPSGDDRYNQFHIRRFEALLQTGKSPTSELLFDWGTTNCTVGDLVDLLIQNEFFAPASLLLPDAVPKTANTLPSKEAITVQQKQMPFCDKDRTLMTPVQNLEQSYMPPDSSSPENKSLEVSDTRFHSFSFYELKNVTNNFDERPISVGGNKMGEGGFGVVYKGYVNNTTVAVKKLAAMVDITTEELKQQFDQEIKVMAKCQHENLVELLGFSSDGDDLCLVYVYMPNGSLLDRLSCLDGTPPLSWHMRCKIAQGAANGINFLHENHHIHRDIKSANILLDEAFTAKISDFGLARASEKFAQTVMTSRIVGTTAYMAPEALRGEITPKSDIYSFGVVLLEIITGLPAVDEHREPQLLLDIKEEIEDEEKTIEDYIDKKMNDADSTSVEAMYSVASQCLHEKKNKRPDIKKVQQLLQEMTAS
Kind of series: IRAK4 MSA (Mobility-Shift Assay) at Km ATP. The format is biochemical. The settings on record: GST-IRAK4 1 nM, ATP 37 μM (Km); read-out: IC50 for inhibiting human IRAK4 kinase. As to the method:
A recombinant fusion protein of N-terminal GST (glutathione-S-transferase) and human IRAK4 was used as enzyme (GST-IRAK4, kinase IRAK4 (Cama)) at a final concentration of 1 nM; ATP (Sigma) was at a final concentration of 37 μM; the substrates used for the kinase reaction were a 5-FAM (5-carboxyfluorescein)-labeled polypeptide (5-FAM-[…]-COOH) and a substrate peptide FAM-P8 (GL Biochem) at final concentrations of […].
In this assay, 500 μM solutions of the compounds were prepared in 100% DMSO, and serially 4-fold diluted to the 10th concentration gradient with 100% DMSO, followed by a 10-fold dilution in the compound buffer (50 mM HEPES. pH 7.5, 0.00015% Brij-35) to give intermediate dilutions of the compounds at a final concentration of 10 μM-0.04 nM containing 10% DMSO respectively, 5 μL of the dilutions were transferred into a black 384-well plate respectively.
IRAK4 was diluted to 2.5 nM in the kinase buffer (50 mM HEPES, pH 7.5, 0.00015% Brij-35, 2 mM DTT). 10 μL of the IRAK4 dilution was transferred to the 384-well plate and co-incubated with the compound for 10-15 min.
The substrate and ATP were diluted to 12.5 μM and 92.5 μM with reaction buffer (50 mM HEPES, pH 7.5, 0.00015% Brij-35, 10 mM MgCl2), respectively. 10 μL of the dilutions were transferred to a 384-well plate and incubated at 28° C. for 1 h respectively. The reaction was terminated by adding 25 μL of 50 mM EDTA to the 384-well plate.
The inhibition rates of IRAK4 by the compounds were calculated by measuring the rate of phosphorylated substrate using a Caliper EZ Reader (PerkinElmer) and the IC50 values were calculated by XL-fit software.

For series [3], the system named is IL-6 release in LPS-induced Balb/c female mice. Briefly: Inhibition of IL-6 release in LPS-induced Balb/c female mice. The format is in vivo, mouse. Also on record: concentration or dose not given beside the values. The settings on record: administered 5 h before LPS induction, serum. As to the method: Objective of the test: To determine the inhibitory effect of the compounds by measuring the plasma IL-6 concentration in a Balb/c mouse model with LPS-induced inflammation.
2.1 Prepared mouse serum samples (sample batch no. 20181218)
4.1 Reagent kit was equilibrated at room temperature (25-28° C.) for 20 min. After each detection, the remaining reagents were stored at 4° C.
4.3 Preparing reference standard: 1 vial of reference standard substance was added with labeled volume of reference standard diluent. The mixtures were incubated for 15 min at room temperature. Then the mixtures were gently mixed to completely dissolve the substance to prepare a reference standard stock at a final concentration of 1000 μg/mL.
4.4 Dilution of samples: The sample in each group was diluted by […], i.e., a 2-fold dilution with sample assay buffer followed by another two-fold dilution with standard diluent.
4.5 The diluted samples or standards of different concentrations were added into corresponding wells at 100 μL/well respectively, and a background correcting well (or a blank well) was set by adding only TMB buffer and terminating solution. The wells were sealed with a transparent film and incubated at room temperature for 120 min.
4.6 The plate was subjected to 5 washes, each with 300 μL of washing buffer for 15-30 sec. The plate was dried on thick absorbent paper after the last wash.
4.7 Biotinylated antibody was added at 100 μL/well (Note: the biotinylated antibody was prepared in advance and could be used directly without further dilution). The wells were sealed with a transparent film and incubated at room temperature for 60 min.
4.8 The plate was subjected to 5 washes, each with 300 μL of washing buffer for 15-30 sec. The plate was dried on thick absorbent paper after the last wash.
4.9 Horseradish peroxidase-labeled streptavidin was added at 100 μL/well. The wells were sealed with a white film and incubated away from light at room temperature for 20 min.
4.10 The plate was subjected to 5 washes, each with 300 μL of washing buffer for 15-30 sec. The plate was dried on thick absorbent paper after the last wash.
4.11 The chromogenic reagent TMB was added 100 μL/well. The wells were sealed with a white film and incubated away from light at room temperature for 20 min.
4.12 The terminating solution was added at 50 μL/well and A450 value was measured right after mixing.

The nature of series [4]: Stability in rat liver microsomes. It counts as in vitro ADME. The conditions noted are these: pH 7.4, ∞ = no obvious metabolism found during assay, read-out: Stability test in liver microsomes t1/2, Rat. On the procedure:
(§1) 1. Preparation of buffer C:
(§2) Buffer A: 1.0 L of 0.1 M monopotassium phosphate buffer (containing 1.0 mM EDTA);
(§3) Buffer A: 1.0 L of 0.1 M dipotassium phosphate buffer (containing 1.0 mM EDTA);
(§4) Buffer C: Buffer A was added to 700 mL of buffer B until pH reached 7.4.
(§5) The test compound and the reference were separately dissolved in DMSO to give 10 mM stocks.
(§6) 500 μM solution: 10 μL of 10 mM stock solution was added to 190 μL of acetonitrile;
(§7) 1.5 μM dosing solution (in liver microsome solution):
(§8) 18.75 μL of 20 mg/mL liver microsomes were added to 479.75 μL of buffer C, followed by 1.5 μL of 500 μM solution. The mixture was gently shaken to mix well.
(§9) NADPH was weighed, to which an appropriate amount of buffer C was added to prepare a 6 mM NADPH solution.
(§10) 5. 30 μL of 1.5 μM dosing solution was added to wells of a 96-well plate set for different time points (0 min, 5 min, 15 min, 30 min, 45 min) in duplicate.
(§11) 6. Preparation of 0 min samples: 135 μL of acetonitrile (containing internal standard) was added to the 0 min wells, followed by 15 μL of 6 mM NADPH solution.
(§12) 7. The 96-well plate containing 1.5 μM dosing solution and NADPH solution were preheated for 5 min in a water bath at 37° C.
(§13) 8. 15 μL of pre-heated 6 mM NADPH solution was added to wells set for 5 min, 15 min, 30 min and 45 min to start the reaction.
(§14) 9. At time points of 5 min, 15 min, 30 min and 45 min, the reaction was terminated by adding 135 μL of acetonitrile (containing internal standard). The mixtures were vortexed for 10 min and centrifuged at 5594×g for 15 min (Thermo Multifuge×3R).
(§15) 10. 50 μL of the supernatant was transferred to wells of a 96-well plate containing 50 μL of water. The samples were mixed and finally subjected to LC-MS/MS analysis.

A short description of series [5]: Stability in mouse liver microsomes. It counts as in vitro ADME. The conditions noted are these: ∞ = no obvious metabolism found during assay. On the procedure:
as §1, §2, §3, §4, §5, §6, §7, §8, §9, §10, §11, §12, §13, §14, §15
Background: Microsomes from liver hold many membrane-bound enzymes, among them those of drug oxidation.

Series [6] is described as follows: Stability in human liver microsomes. It counts as in vitro ADME. The settings on record: ∞ = no obvious metabolism found during assay. On the procedure: as §1, §2, §3, §4, §5, §6, §7, §8, §9, §10, §11, §12, §13, §14, §15
Series [7] deals with T2, CYP2D6 (Homo sapiens, UniProt P10635).
T2 construct: tissue Corning (USA); host or cells: mixed human liver microsomes
T2 sequence (P10635 whole entry): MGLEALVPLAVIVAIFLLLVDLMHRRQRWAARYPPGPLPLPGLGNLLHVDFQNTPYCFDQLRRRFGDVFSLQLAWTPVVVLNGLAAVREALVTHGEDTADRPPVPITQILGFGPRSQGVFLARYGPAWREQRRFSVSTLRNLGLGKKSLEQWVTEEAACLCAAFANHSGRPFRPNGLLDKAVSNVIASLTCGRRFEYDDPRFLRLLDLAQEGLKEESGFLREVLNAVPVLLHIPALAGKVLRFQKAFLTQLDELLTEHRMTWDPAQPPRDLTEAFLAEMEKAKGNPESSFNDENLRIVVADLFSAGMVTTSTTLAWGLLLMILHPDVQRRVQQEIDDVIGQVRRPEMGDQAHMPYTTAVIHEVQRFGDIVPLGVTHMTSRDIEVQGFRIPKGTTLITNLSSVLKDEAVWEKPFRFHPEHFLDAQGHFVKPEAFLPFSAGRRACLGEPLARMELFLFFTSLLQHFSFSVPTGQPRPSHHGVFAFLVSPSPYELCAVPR
Kind of series: CYP450 inhibition in human liver microsomes, CYP2D6. The format is in vitro ADME. As to the method:
(§16) This study was intended to investigate the inhibitory effect of the test compounds on five major CYP450 enzyme subtypes CYP1A2, 2C9, 2C19, 2D6 and 3A4 in human liver microsomes. The mixed human liver microsomes used in this assay were purchased from Corning (USA). The test compounds were co-incubated at 7 concentrations with human liver microsomes and five probe substrates (phenacetin for CYP1a2, diclofenac for CYP2C9, mephenytoin for CYP2C19, dextromethorphan for CYP2D6, midazolam for CYP3A4-M, mixed). The reaction was initiated by adding coenzyme NADPH, and terminated by adding acetonitrile containing internal standard. After the proteins were precipitated, the supernatant was centrifuged. The characteristic metabolites in the supernatant (acetaminophen for CYP1A2, 4-hydroxydiclofenac for CYP2C9, 4-hydroxymephenytoin for CYP2C19, dextrorphan for CYP2D6, 1-hydroxymidazolam for CYP3A4-M) were analyzed by LC-MS/MS. The influence of the test compounds on production of the characteristic metabolites was finally analyzed on the basis of the data obtained. A selective inhibitor (ketoconazole for CYP3A4-M) was used as positive control. All samples were tested in duplicate.

Series [8] concerns the target T3, CYP2C19 (Homo sapiens, UniProt P33261).
T3 construct: tissue Corning (USA); host or cells: mixed human liver microsomes
Briefly: CYP450 inhibition in human liver microsomes, CYP2C19. The format is in vitro ADME. As to the method: as §16

Series [9] has as its target T4, CYP3A4 (Homo sapiens, UniProt P08684).
T4 construct: tissue Corning (USA); host or cells: mixed human liver microsomes
Briefly: CYP450 inhibition in human liver microsomes, CYP3A4. The format is in vitro ADME. On the procedure:
as §16

Series [10] has as its target T5, CYP2C9 (Homo sapiens, UniProt P11712).
T5 construct: tissue Corning (USA); host or cells: mixed human liver microsomes
Kind of series: CYP450 inhibition in human liver microsomes, CYP2C9. The format is in vitro ADME. On the procedure: as §16

Series [11] has as its target T6, CYP1A2 (Homo sapiens, UniProt P05177).
T6 construct: tissue Corning (USA); host or cells: mixed human liver microsomes
T6 sequence (P05177 1-516): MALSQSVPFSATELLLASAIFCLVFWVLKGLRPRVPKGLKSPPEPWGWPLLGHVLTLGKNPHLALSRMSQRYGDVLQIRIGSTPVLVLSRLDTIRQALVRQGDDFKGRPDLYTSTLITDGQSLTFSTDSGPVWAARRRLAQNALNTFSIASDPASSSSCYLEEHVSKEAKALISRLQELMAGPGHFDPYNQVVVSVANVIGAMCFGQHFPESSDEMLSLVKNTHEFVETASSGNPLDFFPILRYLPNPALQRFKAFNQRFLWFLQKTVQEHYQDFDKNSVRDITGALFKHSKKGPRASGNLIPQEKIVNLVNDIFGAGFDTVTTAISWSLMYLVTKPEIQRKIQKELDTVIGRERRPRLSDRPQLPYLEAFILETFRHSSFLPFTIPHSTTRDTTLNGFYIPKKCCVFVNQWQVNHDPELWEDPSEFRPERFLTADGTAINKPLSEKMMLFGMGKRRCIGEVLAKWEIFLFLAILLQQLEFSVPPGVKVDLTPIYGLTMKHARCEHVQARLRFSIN
Kind of series: CYP450 inhibition in human liver microsomes, CYP1A2. It counts as in vitro ADME. As to the method:
as §16

T4 sequence (P08684 whole entry): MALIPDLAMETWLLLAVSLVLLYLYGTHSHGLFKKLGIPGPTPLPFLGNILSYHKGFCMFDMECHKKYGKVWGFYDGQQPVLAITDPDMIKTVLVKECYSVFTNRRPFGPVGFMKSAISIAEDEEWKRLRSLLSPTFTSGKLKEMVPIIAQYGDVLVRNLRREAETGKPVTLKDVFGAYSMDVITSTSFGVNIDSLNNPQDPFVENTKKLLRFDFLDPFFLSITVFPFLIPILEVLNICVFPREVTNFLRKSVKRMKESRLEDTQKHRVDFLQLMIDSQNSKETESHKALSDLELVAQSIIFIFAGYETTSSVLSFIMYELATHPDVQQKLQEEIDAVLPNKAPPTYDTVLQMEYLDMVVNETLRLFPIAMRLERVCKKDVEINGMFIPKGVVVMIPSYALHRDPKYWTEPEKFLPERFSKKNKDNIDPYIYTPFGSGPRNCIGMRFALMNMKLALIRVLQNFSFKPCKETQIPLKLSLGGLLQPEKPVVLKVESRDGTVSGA
T5 sequence (P11712 whole entry): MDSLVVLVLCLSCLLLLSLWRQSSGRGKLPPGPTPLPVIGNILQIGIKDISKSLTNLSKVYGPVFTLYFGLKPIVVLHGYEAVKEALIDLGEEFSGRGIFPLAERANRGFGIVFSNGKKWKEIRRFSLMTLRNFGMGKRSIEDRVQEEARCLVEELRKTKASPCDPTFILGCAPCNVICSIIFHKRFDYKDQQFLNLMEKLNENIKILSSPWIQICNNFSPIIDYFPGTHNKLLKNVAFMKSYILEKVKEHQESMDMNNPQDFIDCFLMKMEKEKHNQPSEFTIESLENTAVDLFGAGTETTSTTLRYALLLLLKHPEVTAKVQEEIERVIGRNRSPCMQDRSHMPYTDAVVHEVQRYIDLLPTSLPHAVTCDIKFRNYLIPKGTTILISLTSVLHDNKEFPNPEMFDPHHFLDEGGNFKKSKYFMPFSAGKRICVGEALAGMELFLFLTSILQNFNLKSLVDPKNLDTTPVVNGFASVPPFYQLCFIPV
T3 sequence (P33261 whole entry): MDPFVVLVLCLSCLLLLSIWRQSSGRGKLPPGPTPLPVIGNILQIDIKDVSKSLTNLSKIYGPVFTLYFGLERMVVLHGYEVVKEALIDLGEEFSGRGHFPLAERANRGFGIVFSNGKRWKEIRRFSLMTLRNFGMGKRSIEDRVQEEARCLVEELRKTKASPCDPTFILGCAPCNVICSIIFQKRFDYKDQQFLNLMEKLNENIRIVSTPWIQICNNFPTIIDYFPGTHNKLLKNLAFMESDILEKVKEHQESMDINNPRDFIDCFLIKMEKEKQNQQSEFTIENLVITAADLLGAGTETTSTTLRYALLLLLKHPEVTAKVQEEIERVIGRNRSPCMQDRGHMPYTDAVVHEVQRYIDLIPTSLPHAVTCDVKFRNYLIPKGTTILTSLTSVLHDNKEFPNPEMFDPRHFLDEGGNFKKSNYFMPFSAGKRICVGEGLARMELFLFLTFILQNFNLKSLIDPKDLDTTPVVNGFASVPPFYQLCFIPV

What is called IC50 is the concentration that gives 50% inhibition. `COc1cc2nn([C@H]3C[C@H](C(C)(C)O)C3)cc2cc1NC(=O)c1cccc(C(F)F)n1` [MY-004-115]: the “Inhibition rate of TNF-α” value in series [1] is listed as 89.59%. For the same compound, the IC50 in [2] is 0.002 µM. Also, the “Inhibition rate of IL-6” value in series [3] came to 93.35%.

Take `CC(C)(O)[C@H]1C[C@H](n2cc3cc(NC(=O)c4cccc(C(F)(F)F)n4)c(-n4cccn4)cc3n2)C1` [MY-004-144]: the half-life at 1 μM in series [4] worked out at 11.4 h. For the same compound, the “Stability test in liver microsomes t1/2, Mouse” value in series [5] is on record as “∞”. Further, in series [6], the “Stability test in liver microsomes t1/2, Human” value is “∞”. Further, in series [2], the IC50 was 0.0044 µM.

For the compound `CC(C)(O)CCn1cc2cc(NC(=O)c3cccc(C(F)(F)F)n3)c(C(C)(C)O)cc2n1` [MYA, reference compound], the concentration for half-maximal inhibition (IC50) in [7] is over 30 µM; in series [8], 23.5 µM; in series [9], over 30 µM; in series [10] it was 19.1 µM; in series [11] it was 2.91 µM.
